Data from US20100055032A1, “METHODS FOR […] IMAGING USING NANOP[…] AGENTS” (NanoScan Imaging LLC, priority 2001, published 2010).

Test: CT evaluation of initial uptake and vascular distribution of PH-50 in normal rabbits
Assay type: in vivo, New Zealand white rabbits
Details: for Percent Uptake (%) Aorta / Percent Uptake (%) Brain / Percent Uptake (%) Cardiac / Percent Uptake (%) Liver / Percent Uptake (%) Portal Vein / Percent Uptake (%) Posterior Vena Cava: pre-treatment = 0
Description: One (1) mL of PH-50 injected as a bolus intravenously (IV) via the jugular vein (n=2); and three (3) mL with a five (5) minute infusion via IV by way of the jugular vein (n=2); using the criteria set forth below in Table 1:
The animals were anesthetized via mask using Isoflorene® prior to each study and maintained under anesthesia during CT scan procedures. The animals were recovered and were mobile and allowed to drink up to the 8 hour study. Digital Subtraction Angiography (DSA) was performed during initial injection (one IV bolus and one infusion), then each rabbit was immediately moved to CT. The CT was performed after the initial injection (one IV bolus and one infusion).
All CT imaging was performed using a GE® Sytec Sri Helical Scanner (Milwaukee, Wis.) and the images were stored as DICOM3 on GE® optical and CD-Rom medium. The CT imaging parameters for these studies were 1 mm consecutive slices at 120 kvp at 1.5 sec, 200 mA. All scans were done with a standard phantom placed beneath the animal. All CT scans performed were of the entire animal (rostral nasal area to pelvis). Contrast attenuation was measured in Hounsfield units (HU) and expressed as percent (%) uptake, taking into account the calibration from the phantom. The iodine concentration and iodine uptake were estimated post-injection from vascular, lung and liver tissues.

[1] = Rabbit No. 1151 (infusion), 0 min
[2] = Rabbit No. 1151 (infusion), 5 min
[3] = Rabbit No. 1151 (infusion), 15 min
[4] = Rabbit No. 1151 (infusion), 60 min
[5] = Rabbit No. 1151 (infusion), 480 min
[6] = Rabbit No. 1151, infusion 3 mL/5 min IV (150 mg/kg), 0 min post injection
[7] = Rabbit No. 1151, infusion 3 mL/5 min IV (150 mg/kg), 5 min post injection
[8] = Rabbit No. 1151, infusion 3 mL/5 min IV (150 mg/kg), 15 min post injection
[9] = Rabbit No. 1151, infusion 3 mL/5 min IV (150 mg/kg), 60 min post injection
[10] = Rabbit No. 1151, infusion 3 mL/5 min IV (150 mg/kg), 480 min post injection
[11] = Rabbit No. 1156 (bolus), 15 min
[12] = Rabbit No. 1156 (bolus), 60 min
[13] = Rabbit No. 1156 (bolus), 480 min
[14] = Rabbit No. 1156, bolus injection 1 mL IV (50 mg/kg), 0 min post injection
[15] = Rabbit No. 1156, bolus injection 1 mL IV (50 mg/kg), 5 min post injection
[16] = Rabbit No. 1156, bolus injection 1 mL IV (50 mg/kg), 15 min post injection
[17] = Rabbit No. 1156, bolus injection 1 mL IV (50 mg/kg), 60 min post injection
[18] = Rabbit No. 1156, bolus injection 1 mL IV (50 mg/kg), 480 min post injection
[19] = Rabbit No. 1159, bolus injection 1 mL IV (50 mg/kg), 15 min post injection
[20] = Rabbit No. 1159, bolus injection 1 mL IV (50 mg/kg), 60 min post injection
[21] = Rabbit No. 1159, bolus injection 1 mL IV (50 mg/kg), 480 min post injection
[22] = Rabbit No. 1166, infusion 3 mL/5 min IV (150 mg/kg), 15 min post injection
[23] = Rabbit No. 1166, infusion 3 mL/5 min IV (150 mg/kg), 60 min post injection
[24] = Rabbit No. 1166, infusion 3 mL/5 min IV (150 mg/kg), 480 min post injection

Structure (SMILES): CCOC(=O)CCCCCOC(=O)c1c(I)c(NC(C)=O)c(I)c(NC(C)=O)c1I [PH-50, 6-ethoxy-6-oxohexy-3,5-bis(acetylamino)-2,4,6-triiodobenzoate]
- Percent Uptake (%) Aorta [1]: 44%
- Percent Uptake (%) Brain [1]: 2%
- Percent Uptake (%) Cardiac [1]: 33%
- Percent Uptake (%) Liver [1]: 8%
- Percent Uptake (%) Portal Vein [1]: 48%
- Percent Uptake (%) Posterior Vena Cava [1]: 54%
- Percent Uptake (%) Aorta [2]: 14%
- Percent Uptake (%) Brain [2]: 17%
- Percent Uptake (%) Cardiac [2]: 61%
- Percent Uptake (%) Liver [2]: 32%
- Percent Uptake (%) Portal Vein [2]: 91%
- Percent Uptake (%) Posterior Vena Cava [2]: 44%
- Percent Uptake (%) Aorta [3]: 37%
- Percent Uptake (%) Brain [3]: 6%
- Percent Uptake (%) Cardiac [3]: 4%
- Percent Uptake (%) Liver [3]: 29%
- Percent Uptake (%) Portal Vein [3]: 56%
- Percent Uptake (%) Posterior Vena Cava [3]: 0%
- Percent Uptake (%) Aorta [4]: 39%
- Percent Uptake (%) Brain [4]: 14%
- Percent Uptake (%) Cardiac [4]: 6%
- Percent Uptake (%) Liver [4]: 21%
- Percent Uptake (%) Portal Vein [4]: −5%
- Percent Uptake (%) Posterior Vena Cava [4]: −43%
- Percent Uptake (%) Aorta [5]: −62%
- Percent Uptake (%) Brain [5]: 90.1%
- Percent Uptake (%) Cardiac [5]: 0%
- Percent Uptake (%) Liver [5]: −19%
- Percent Uptake (%) Portal Vein [5]: 7%
- Percent Uptake (%) Posterior Vena Cava [5]: −21%
- Hounsfield Units (HU) Aorta [6]: 49.08 HU
- Hounsfield Units (HU) Brain [6]: 44.89 HU
- Hounsfield Units (HU) Cardiac [6]: 48.32 HU
- Hounsfield Units (HU) Liver [6]: 93.08 HU
- Hounsfield Units (HU) Portal Vein [6]: 54.03 HU
- Hounsfield Units (HU) Posterior Vena Cava [6]: 73.00 HU
- Hounsfield Units (HU) Aorta [7]: 38.85 HU
- Hounsfield Units (HU) Brain [7]: 51.38 HU
- Hounsfield Units (HU) Cardiac [7]: 58.67 HU
- Hounsfield Units (HU) Liver [7]: 113.68 HU
- Hounsfield Units (HU) Portal Vein [7]: 69.54 HU
- Hounsfield Units (HU) Posterior Vena Cava [7]: 68.54 HU
- Hounsfield Units (HU) Aorta [8]: 46.77 HU
- Hounsfield Units (HU) Brain [8]: 46.75 HU
- Hounsfield Units (HU) Cardiac [8]: 37.81 HU
- Hounsfield Units (HU) Liver [8]: 111.22 HU
- Hounsfield Units (HU) Portal Vein [8]: 56.85 HU
- Hounsfield Units (HU) Posterior Vena Cava [8]: 47.46 HU
- Hounsfield Units (HU) Aorta [9]: 47.62 HU
- Hounsfield Units (HU) Brain [9]: 50.38 HU
- Hounsfield Units (HU) Cardiac [9]: 38.49 HU
- Hounsfield Units (HU) Liver [9]: 104.26 HU
- Hounsfield Units (HU) Portal Vein [9]: 34.46 HU
- Hounsfield Units (HU) Posterior Vena Cava [9]: 27.00 HU
- Hounsfield Units (HU) Aorta [10]: 13.00 HU
- Hounsfield Units (HU) Brain [10]: 34.37 HU
- Hounsfield Units (HU) Cardiac [10]: 36.35 HU
- Hounsfield Units (HU) Liver [10]: 69.57 HU
- Hounsfield Units (HU) Portal Vein [10]: 38.81 HU
- Hounsfield Units (HU) Posterior Vena Cava [10]: 37.72 HU
- Percent Uptake (%) Aorta (Rabbit No. 1156 (bolus), 0 min): 317.0%
- Percent Uptake (%) Brain (Rabbit No. 1156 (bolus), 0 min): −8%
- Percent Uptake (%) Cardiac (Rabbit No. 1156 (bolus), 0 min): 38%
- Percent Uptake (%) Liver (Rabbit No. 1156 (bolus), 0 min): 13%
- Percent Uptake (%) Portal Vein (Rabbit No. 1156 (bolus), 0 min): 24%
- Percent Uptake (%) Posterior Vena Cava (Rabbit No. 1156 (bolus), 0 min): 168.0%
- Percent Uptake (%) Aorta (Rabbit No. 1156 (bolus), 5 min): 118%
- Percent Uptake (%) Brain (Rabbit No. 1156 (bolus), 5 min): −15%
- Percent Uptake (%) Cardiac (Rabbit No. 1156 (bolus), 5 min): 15%
- Percent Uptake (%) Liver (Rabbit No. 1156 (bolus), 5 min): 26%
- Percent Uptake (%) Portal Vein (Rabbit No. 1156 (bolus), 5 min): 38%
- Percent Uptake (%) Posterior Vena Cava (Rabbit No. 1156 (bolus), 5 min): 253%
- Percent Uptake (%) Aorta [11]: 162%
- Percent Uptake (%) Brain [11]: −8%
- Percent Uptake (%) Cardiac [11]: 12%
- Percent Uptake (%) Liver [11]: 22%
- Percent Uptake (%) Portal Vein [11]: 90%
- Percent Uptake (%) Posterior Vena Cava [11]: 112%
- Percent Uptake (%) Aorta [12]: 63%
- Percent Uptake (%) Brain [12]: −3%
- Percent Uptake (%) Cardiac [12]: 18%
- Percent Uptake (%) Liver [12]: 19%
- Percent Uptake (%) Portal Vein [12]: 108%
- Percent Uptake (%) Posterior Vena Cava [12]: 33%
- Percent Uptake (%) Aorta [13]: 23%
- Percent Uptake (%) Brain [13]: −3%
- Percent Uptake (%) Cardiac [13]: 4%
- Percent Uptake (%) Liver [13]: −12%
- Percent Uptake (%) Portal Vein [13]: −5%
- Percent Uptake (%) Posterior Vena Cava [13]: 91%
- Hounsfield Units (HU) Aorta [14]: 65.00 HU
- Hounsfield Units (HU) Brain [14]: 29.00 HU
- Hounsfield Units (HU) Cardiac [14]: 54.00 HU
- Hounsfield Units (HU) Liver [14]: 85.00 HU
- Hounsfield Units (HU) Portal Vein [14]: 52.00 HU
- Hounsfield Units (HU) Posterior Vena Cava [14]: 51.00 HU
- Hounsfield Units (HU) Aorta [15]: 34.00 HU
- Hounsfield Units (HU) Brain [15]: 27.00 HU
- Hounsfield Units (HU) Cardiac [15]: 45.00 HU
- Hounsfield Units (HU) Liver [15]: 95.32 HU
- Hounsfield Units (HU) Portal Vein [15]: 58.08 HU
- Hounsfield Units (HU) Posterior Vena Cava [15]: 67.00 HU
- Hounsfield Units (HU) Aorta [16]: 40.85 HU
- Hounsfield Units (HU) Brain [16]: 29.03 HU
- Hounsfield Units (HU) Cardiac [16]: 44.02 HU
- Hounsfield Units (HU) Liver [16]: 91.73 HU
- Hounsfield Units (HU) Portal Vein [16]: 79.65 HU
- Hounsfield Units (HU) Posterior Vena Cava [16]: 40.31 HU
- Hounsfield Units (HU) Aorta [17]: 25.38 HU
- Hounsfield Units (HU) Brain [17]: 30.57 HU
- Hounsfield Units (HU) Cardiac [17]: 46.52 HU
- Hounsfield Units (HU) Liver [17]: 89.56 HU
- Hounsfield Units (HU) Portal Vein [17]: 87.37 HU
- Hounsfield Units (HU) Posterior Vena Cava [17]: 25.31 HU
- Hounsfield Units (HU) Aorta [18]: 19.20 HU
- Hounsfield Units (HU) Brain [18]: 30.50 HU
- Hounsfield Units (HU) Cardiac [18]: 40.65 HU
- Hounsfield Units (HU) Liver [18]: 66.15 HU
- Hounsfield Units (HU) Portal Vein [18]: 39.73 HU
- Hounsfield Units (HU) Posterior Vena Cava [18]: 36.24 HU
- Hounsfield Units (HU) Aorta [19]: 43.80 HU
- Hounsfield Units (HU) Brain [19]: 32.30 HU
- Hounsfield Units (HU) Cardiac [19]: 30.13 HU
- Hounsfield Units (HU) Liver [19]: 87.08 HU
- Hounsfield Units (HU) Portal Vein [19]: 53.54 HU
- Hounsfield Units (HU) Posterior Vena Cava [19]: 52.17 HU
- Hounsfield Units (HU) Aorta [20]: 43.83 HU
- Hounsfield Units (HU) Brain [20]: 34.39 HU
- Hounsfield Units (HU) Cardiac [20]: 44.96 HU
- Hounsfield Units (HU) Liver [20]: 94.17 HU
- Hounsfield Units (HU) Portal Vein [20]: 89.92 HU
- Hounsfield Units (HU) Posterior Vena Cava [20]: 65.48 HU
- Hounsfield Units (HU) Aorta [21]: 21.00 HU
- Hounsfield Units (HU) Brain [21]: 31.00 HU
- Hounsfield Units (HU) Cardiac [21]: 33.73 HU
- Hounsfield Units (HU) Liver [21]: 76.24 HU
- Hounsfield Units (HU) Portal Vein [21]: 39.15 HU
- Hounsfield Units (HU) Posterior Vena Cava [21]: 25.36 HU
- Hounsfield Units (HU) Aorta [22]: 20.82 HU
- Hounsfield Units (HU) Brain [22]: 27.15 HU
- Hounsfield Units (HU) Cardiac [22]: 47.51 HU
- Hounsfield Units (HU) Liver [22]: 117.99 HU
- Hounsfield Units (HU) Portal Vein [22]: 63.85 HU
- Hounsfield Units (HU) Posterior Vena Cava [22]: 43.09 HU
- Hounsfield Units (HU) Aorta [23]: 23.08 HU
- Hounsfield Units (HU) Brain [23]: 34.85 HU
- Hounsfield Units (HU) Cardiac [23]: 37.66 HU
- Hounsfield Units (HU) Liver [23]: 108.39 HU
- Hounsfield Units (HU) Portal Vein [23]: 59.87 HU
- Hounsfield Units (HU) Posterior Vena Cava [23]: 25.08 HU
- Hounsfield Units (HU) Aorta [24]: 14.30 HU
- Hounsfield Units (HU) Brain [24]: 38.90 HU
- Hounsfield Units (HU) Cardiac [24]: 35.31 HU
- Hounsfield Units (HU) Liver [24]: 63.20 HU
- Hounsfield Units (HU) Portal Vein [24]: 42.92 HU
- Hounsfield Units (HU) Posterior Vena Cava [24]: 39.35 HU
- adverse reactions to the compound (normal rabbits, 1 mL bolus or 3 mL/5 min infusion IV): no adverse reactions
- Hounsfield units in the liver post-injection (normal rabbits, CT): dramatic increase
